Reference: patent US5965605A, “Inhibition of the binding human IgE to its receptor by tetracyclic compounds for the alleviation of IgE-mediated immune response” (Heska Corporation, priority 1997, dated 1999)

Experiments:
[1] = biological target: human IgE / soluble FcεRI α (Fc-FcεRIα fusion protein); assay: Protein-based IgE-FcεRI binding assay (ELISA); settings: for % Inhibition of IgE/FcεRI binding: 10 μg/ml
Experimental: A protein-based in vitro assay was developed to screen for compounds which block the interaction between IgE and FcεRI. This assay used human IgE and soluble FcεRI α proteins which were prepared as outlined below. As will be described more below, the assay was performed in the format of an Enzyme-linked ImmunoSorbent Assay (ELISA) as follows. ELISA plates were prepared by coating 96-well plates with soluble FcεRI α protein. In the binding step, biotinylated IgE was captured by the FcεRI α in the wells. In the detection step, bound biotinylated IgE was quantitated by the addition of avidin-horseradish peroxidase and a chromogenic substrate. For the screening of antagonists, the IgE and FcεRI binding assay was performed in the presence of various testing compounds. Compounds that inhibit the interaction between IgE and FcεRI α could be readily detected. This assay was then applied to screen tens of thousand of compounds from a diversified chemical library.
To provide IgE for the ELISA, a recombinant IgE DNA construct was built by ligating a mouse heavy chain variable region, Vh, gene fragment to a human IgE heavy chain, Cε.
The growth medium collected from the above transfected cell culture was concentrated 30-50 times by membrane filtration (Filtron, Northboro, Mass.) and passed through a column of NIP (Genosys Biotechnologies Inc.)-bovine serum albumin (BSA) sepharose. The bound IgE was subsequently eluted from NIP-BSA sepharose using 5 M MgCl2. The eluate was then dialyzed in phosphate buffered saline (PBS). The integrity of the purified IgE was analyzed by SDS-polyacrylamide gel electrophoresis.
To provide soluble FcεRI α protein for ELISA, a DNA construct was made to produce soluble FcεRI α as a protein fused to the Fc region of the human immunoglobulin G heavy chain. The protein product of the construct will he termed Fc-FcεRIα.
The culture media of the cells producing Fc-FcεRI α fusion protein was collected and passed through a Protein A Sepharose column (Repligen, Cambridge, Mass.). The bound fusion protein was eluted from the Protein A Sepharose in 100 mM sodium citrate buffer (pH 4.0) and immediately neutralized with 0.1 volume of 1M Tris-hydrochloride, pH 8. The integrity of the purified protein was analyzed by SDS-polyacrylamide gel electrophoresis.
Fc-FcεRIα was diluted to 0.4 μg/ml in PBS and was used to coat 96-well plates. One hundred microliters of the FcεRIα fusion protein was added to wells of the 96-well plates, and the plate was incubated at 4° C. for 20 hr and washed twice with PBS/T (PBS containing 0.05% Tween-20). The non-specific binding sites in each of the wells were blocked with 200 μl of blocking buffer (PBS containing 1% of BSA and 1% of goat serum) at 37° C. for 2 hr. The plates were then washed 4 times with PBS/T and stored frozen at -20° C. The plates were thawed at room temperature just before use.
IgE was biotinylated as follows. Ten microliters of a 40 mg/ml sulfosuccimidyl 6-(biotinamido)-hexanolate (Pierce, Rockford, Ill.) in dimethylsulphoxide was added to 1 ml of 1 mg/ml IgE in sodium bicarbonate buffer, pH 8.0. After a 4 hr incubation at room temperature, the biotinylation was terminated by the addition of 25 μl of 2M Tris hydrochloride, pH 8 and the resulting biotinylated IgE was diayzed against PBS.
One hundred microliter of this solution was added to wells of a 96-well plate which had been previously coated with Fc-FcεRIα. […] After an additional one hour incubation at room temperature,the plate was again washed four times with PBS/T. The reaction with Avidin-HRP was developed by the addition of 100 μl of K-blue (Elisa Technologies, Lexington, Ky.) to each well.

[2] = biological target: T1, human FcεRI transfected rat basophil leukemia cell line, SX38 (Homo sapiens, UniProt P01854+P12319); assay: Cell-based IgE-FcεRI binding assay; settings: for IC50: read-out: IC50, inhibition of IgE-FcεRI binding (converted)
T1 construct: biotinylated recombinant IgE (mouse VH, human Cε, J558L)
T1 sequence (P12319 26-257): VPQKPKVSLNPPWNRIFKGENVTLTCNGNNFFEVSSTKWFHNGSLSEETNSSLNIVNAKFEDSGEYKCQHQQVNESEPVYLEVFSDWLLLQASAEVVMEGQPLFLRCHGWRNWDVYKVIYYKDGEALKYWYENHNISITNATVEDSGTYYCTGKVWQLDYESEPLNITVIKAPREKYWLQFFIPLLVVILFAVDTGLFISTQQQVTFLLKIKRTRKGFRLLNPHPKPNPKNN
T1 sequence (P01854 whole entry): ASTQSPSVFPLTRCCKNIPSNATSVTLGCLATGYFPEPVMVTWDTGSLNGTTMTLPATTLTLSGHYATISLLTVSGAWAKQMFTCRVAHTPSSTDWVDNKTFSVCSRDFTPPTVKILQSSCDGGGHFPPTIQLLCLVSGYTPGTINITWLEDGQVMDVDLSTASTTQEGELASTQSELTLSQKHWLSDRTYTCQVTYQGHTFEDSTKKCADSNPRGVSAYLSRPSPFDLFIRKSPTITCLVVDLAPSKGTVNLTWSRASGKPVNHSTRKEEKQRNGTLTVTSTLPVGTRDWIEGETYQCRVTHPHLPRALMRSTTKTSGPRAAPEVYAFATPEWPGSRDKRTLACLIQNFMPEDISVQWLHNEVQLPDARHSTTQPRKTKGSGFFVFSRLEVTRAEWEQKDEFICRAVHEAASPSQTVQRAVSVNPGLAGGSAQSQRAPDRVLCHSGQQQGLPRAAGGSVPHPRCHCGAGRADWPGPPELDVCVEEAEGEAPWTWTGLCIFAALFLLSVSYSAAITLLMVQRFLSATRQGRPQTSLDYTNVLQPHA
T1 sequence (Q01362 whole entry partner): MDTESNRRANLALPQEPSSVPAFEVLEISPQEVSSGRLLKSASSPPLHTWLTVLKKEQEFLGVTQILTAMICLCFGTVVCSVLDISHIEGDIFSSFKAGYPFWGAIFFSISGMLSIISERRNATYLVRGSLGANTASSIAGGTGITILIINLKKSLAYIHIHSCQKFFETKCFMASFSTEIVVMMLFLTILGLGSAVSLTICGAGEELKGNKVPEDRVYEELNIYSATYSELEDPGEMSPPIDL
T1 sequence (P30273 19-86 partner): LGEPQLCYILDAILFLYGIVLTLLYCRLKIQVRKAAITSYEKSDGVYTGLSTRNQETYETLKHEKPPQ
Experimental: About 1×10^5 cells in 50 μl of medium were seeded in the wells of 96-well flat bottom plates. […] Forty microliters of this solution was applied to each well and incubated at room temperature for two hours. The plates were washed three times with PBS, and 40 μl of avidin-horseradish peroxidase, at 1 μg/ml in PBS, was added to each well. After an additional hour of incubation at room temperature, the plate was again washed three times with PBS. The subsequent steps for the measurement of the bound IgE were performed as described in the protein-based IgE-FcεRI binding assay.

[3] = test system: rat basophil leukemia cells (RBL cells); assay: Hexosaminidase release assay; format: cell-based; settings: read-out: % Inhibition of IgE mediated hexosaminidase release
Experimental: Tetracyclic Compounds that antagonized the IgE and FcεRIα interaction identified in the protein-based assay and cell-based assay were further evaluated in a screening assay using rat basophil leukemia cells (RBL cells). […] About 2×10^5 RBL cells were seeded per well in a 96 well plate and were incubated overnight at 37° C. A mixture of biotinylated mouse IgE (100 μl of 0.125 μg/ml) and a tetracyclic compound, e.g. compound 2, in medium was added lo each well and was incubated for 1 hour at 37° C. The cells were then washed twice with triggering buffer (119 mM NaCl, 5 mM KCl, 25 mM disodium PIPES, 5.6 mM glucose, 1 mM CaCl2, 0.1% BSA), and pre-incubated in triggering buffer for 10 min. at 37° C. One hundred microliters of 0.02 μg/ml streptavidin in triggering buffer was then added and the cells were incubated for an additional 30 min. at 37° C. The 96 well plate is then centrifuged at 4° C. to pellet all cells, and 80 μl of the supernatant is harvested on ice and transferred to another 96 well plate. As a positive control, two aliquots of about 2×10^5 RBL cells were lysed with 100 μl of 0.2% Triton in triggering buffer, and the supernatant was harvested after centrifugation to pellet all cell debris. Addition of streptavidin to RBL cells, which have been incubated with biotinylated IgE will trigger the release of IgE mediated allergy mediators, such as histamine. Antagonization of IgE/FcεRI binding by a tetracyclic compound results in the release of a reduced level of allergy mediators. The release of allergy mediators was quantitated by assaying for the presence of the enzyme hexosaminidase in the supernatant The concentration of hexosaminidase was determined by hydrolysis of its substrate, p-NAG (p-nitrophenyl-N-acetate-[…], Sigma Chemical Co.) in citrate buffer (pH 4.5) at 37° C. for 1 hr.

[4] = test system: IgE/FcεRI; assay: in situ rat passive cutaneous anaphylaxis (PCA) model; format: in vivo, Sprague Dawley rats; settings: for IC50, inhibition of anaphylaxis in the rat PCA model: in situ rat PCA model; for Percent inhibition of PCA reaction: injected into skin with 0.03 μg/ml IgE
Source text: The tetracyclic compounds that antagonized the IgE and FcεRIα interaction identified in the protein-based assay were further evaluated in the rat PCA model (Haak-Frendscho, et al., J. Immunol., 151:351-358, 1993). […] Mouse anti-dinitrophenyl IgE (Sigma ImmunoChemicals, St. Louis, Mo.) is a bifunctional antibody which binds to dinitrophenyl as well as FcεRI. Exposure of anti-dinitrophenyl-IgE to dinitrophenyl-albumin causes aggregation of the antibody and induces the IgE mediated immune response. […] Fifty microliters of these solutions were injected into the skin of the shaved back of Sprague Dawley rats (Taconic, Germantown, N.Y.). As a positive control, the same amount of anti-dinitrophenyl-IgE in the absence of a tetracyclic compound was injected into the skin of the same rat at a different site. After a period of two hours the sensitized rats were challenged with an intravenous injection of 1 mg/ml of dinitrophenyl-human albumin (Sigma ImmunoChemicals, St. Louis, Mo.) in 1% Evan's blue dye. Thirty minute later, the rats were killed and skinned. Percent inhibition was calculated by the reduction of blue dye at the tetracyclic compound treated injection sites versus the positive control sites.

[5] = test system: IgE/FcεRI; assay: Systemic PCA model in rats; format: in vivo, Sprague Dawley rats
Experimental: The compounds that have activity in the in situ PCA model were tested in the systemic PCA model. This model measures usefulness of a tetracyclic compound for blocking PCA in rats when the tetracyclic compound is administered systemically and the rats were sensitized with IgE at the skin. In this example, compound I was administrate first into the rats by intravenous (I.V.) injection, and immediately thereafter 0.03 μg/ml of anti-dinitrophenyl/IgE was injected into the skin of the shaved back of Sprague Dawley rats. After a sensitization period of 1 hr, the sensitized rats were challenged with an intravenous injection of 1 mg/ml of dinitrophenyl human albumin in 1% Evan's blue dye. Thirty minutes later, the rats were killed and skinned. As a positive control, PBS, lacking a tetracyclic compound, was administered by I.V. injection into Sprague Dawley rats, and the rats were treated in the same manner as the test rats. Percent inhibition of PCA obtained in this model is calculated by determining reduction of blue dye extracted from the tetracyclic compound treated rats compared to the positive control rats.

[6] = Toxicity studies in mice, single I.V. injection; format: in vivo
Source text: The potential toxic side effects following systemic administration was investigated by administering compound 1 in PBS to mice in single I.V. injection.

[7] = Pharmacokinetic studies in rats; format: in vivo; settings: blood, iv, rat, 10 mg/kg I.V.
Experimental: The pharmacokinetic (PK) profile of the compounds following systemic I.V. injection was measured. Compound 1 was formulated in PBS and given to a rat at 10 mg/kg. Blood was drawn from the rat at different time points after injection. The concentrations of compound 1 in the blood were measured by HPLC after separation from serum.

Compound	IC50, inhibition of IgE/FcεRI binding [1]	% Inhibition of IgE/FcεRI binding [1]	IC50 [2]	IC50, inhibition of anaphylaxis in the rat PCA model [4]	inhibition at 10 µg/mL ([2]; 10 μg/ml)	further results
O=C(O)c1c(Cl)c(Cl)c(Cl)c(Cl)c1-c1c2cc(I)c(=O)c(I)c-2oc2c(I)c(O)c(I)cc12 (single isomer, unassigned) [Compound 2]	0.38 µg/mL	100%	5.65 µM	1.10 µg/mL	–	% Inhibition of IgE-FcεRI binding ([2]; 10 μg/ml): 62%; inhibition at 0.1 µg/mL ([3]; 0.1 μg/ml): 11%; inhibition at 0.62 µg/mL ([3]; 0.62 μg/ml): 19%; inhibition at 1.25 µg/mL ([3]; 1.25 μg/ml): 75%; inhibition at 2.5 µg/mL ([3]; 2.5 μg/ml): 96%; inhibition at 5 µg/mL ([3]; 5 μg/ml): 94%
O=C(O)c1c(Cl)ccc(Cl)c1-c1c2cc(I)c(=O)c(I)c-2oc2c(I)c(O)c(I)cc12 [Compound 5]	0.56 µg/mL	99%	–	–	–	–
CCOC(=O)c1ccccc1-c1c2cc(Br)c(=O)c(Br)c-2oc2c(Br)c(O)c(Br)cc12 [Compound 4]	0.82 µg/mL	98%	5.33 µM	2.90 µg/mL	93%	–
O=c1c(Br)cc2c(-c3ccccc3S(=O)(=O)O)c3cc(Br)c(O)c(O)c3oc-2c1O [Compound 8]	0.65 µg/mL	87%	–	–	–	–
CCOC(=O)c1c(Cl)c(Cl)c(Cl)c(Cl)c1-c1c2cc(Br)c(=O)c(Br)c-2oc2c(Br)c(O)c(Br)cc12 [Compound 3]	4.30 µg/mL	90%	–	–	–	–
O=C(O)c1c(Cl)c(Cl)c(Cl)c(Cl)c1-c1c2ccc(=O)c(O)c-2oc2c(O)c(O)ccc12 [Compound 6]	0.63 µg/mL	83%	–	–	–	–
COC(=O)c1ccccc1-c1c2cc(Br)c(=O)c(Br)c-2oc2c(Br)c(O)c(Br)cc12 [Compound 7]	1.46 µg/mL	87%	6.65 µM	–	84%	–
O=C(O)c1c(Cl)c(Cl)c(Cl)c(Cl)c1-c1c2cc(I)c(=O)c(I)c-2oc2c(I)c(O)c(I)cc12 (single isomer, unassigned) [Compound 1]	0.34 µg/mL	98%	12 µM	0.46 µg/mL	46%	% Inhibition of PCA ([5]; 47 mg/kg I.V.): 2.0%; % Inhibition of PCA ([5]; 70 mg/kg I.V.): 64.0%; % Inhibition of PCA ([5]; 94 mg/kg I.V.): 104.0%; % Inhibition of PCA ([5]; 114 mg/kg I.V.): 102.0%; No. of Death ([6]; 400 mg/kg I.V., single injection, 3 mice): 0; LD50 ([6]; mouse, in vivo, iv, mice, single I.V. injection in PBS): > 400 mg/kg; Percent inhibition of PCA reaction ([4]; 0.25 μg/ml): 5%; Percent inhibition of PCA reaction ([4]; 0.5 μg/ml): 66%; Percent inhibition of PCA reaction ([4]; 1 μg/ml): 100%; concentration at 0 h ([7]; 0 minute): 83000 ng/mL; concentration at 0.25 h ([7]; 15 minute): 2510 ng/mL; concentration at 0.5 h ([7]; 30 minute): 902 ng/mL; concentration at 1 h ([7]; 60 minute): 720 ng/mL; concentration at 2 h ([7]; 120 minute): 625 ng/mL; concentration at 4 h ([7]; 240 minute): 512 ng/mL
